Structures are written as SMILES.

The subject of this assay is RAW264.7. The experiment in a line: Antiinflammatory activity against mouse RAW264.7 cells assessed as inhibition of LPS induced nitric oxide production preincubated for 2 hrs followed by LPS challenge measured after 24 hrs by Griess reagent based assay. The format is functional, cell-based. (Nitrite, measured by Griess reagent, commonly stands in for NO production.)
Turning to `COC(=O)C[C@H]1c2c(ccc3c2OCO3)[C@@]2(C)[C@@H](OC(C)=O)Cc3cc4c(cc3[C@H]2N1C)OCO4`, the IC50 was 2030 nM.
For the compound `CN1Cc2c(ccc3c2OCO3)[C@@]2(C)[C@@H](O)Cc3cc4c(cc3[C@@H]12)OCO4`, the IC50 is 2510 nM.
The result for `CC(=O)O[C@H]1Cc2cc3c(cc2[C@H]2[C@@]1(C)c1ccc4c(c1C[N@@+]2(C)[O-])OCO4)OCO3` reads 33800 nM.
The result for `COC(=O)C[C@H]1c2c(ccc3c2OCO3)[C@@]2(C)[C@@H](OC(C)=O)Cc3cc4c(cc3[C@@H]2N1C)OCO4` reads 2190 nM; that for `C[C@@]12c3ccc4c(c3C[N@@+](C)([O-])[C@H]1c1cc3c(cc1C[C@@H]2O)OCO3)OCO4`, 2790 nM; that for `CC(=O)O[C@H]1Cc2cc3c(cc2[C@@H]2[C@@]1(C)c1ccc4c(c1C[N@@+]2(C)[O-])OCO4)OCO3`, 2260 nM.
In the case of `CC(=O)O[C@H]1Cc2cc3c(cc2[C@H]2N(C)Cc4c(ccc5c4OCO5)[C@@]12C)OCO3`, the IC50 came to 23100 nM.
In the case of `CC(=O)O[C@H]1Cc2cc3c(cc2[C@@H]2N(C)Cc4c(ccc5c4OCO5)[C@@]12C)OCO3` it was 1000 nM; in that of `COc1cc2c(cc1O)C1Cc3ccc4c(c3CN1CC2)OCO4` (stereo not given) [CHEILANTHIFOLINE], 1880 nM.
In the case of `CN(C)c1ccc(O)c2c1C[C@H]1C[C@H]3[C@H](N(C)C)C(O)=C(C(N)=O)C(=O)[C@@]3(O)C(O)=C1C2=O` [MINOCYCLINE] it was 31300 nM.

One may read the IC50 as the concentration at which inhibition is half-maximal.
